Patent US6911318B2, “Bacterial transglycosylases: assays for monitoring the activity using Lipid II substrate analogs and methods for discovering new antibiotics” (The Trustees of Princeton University, priority 1999, dated 2005)

Key:
[1] = test system: transglycosylase present in bacterial membranes; assay: in vitro polymerization of biotinylated-[14C]-Lipid II by bacterial membrane protein, ascending chromatography; type: biochemical; conditions: 0.06 μg/ml Moenomycin, FIG. 7
Procedure: FIG. 7 discloses in vitro polymerization of biotinylated-[^14C]-Lipid II accomplished by incubation with bacterial membrane protein, and product is detected by ascending chromatography in isobutyric acid:1M NH4OH (5:3).
In FIG. 7, biotinylated Lipid II serves as a substrate for transglycosylase present in bacterial membranes. Control: incubation of bacterial membranes with biotinylated Lipid II, which is also labeled with [^14C] […] It is thus clear that any other bacterial cell wall inhibitor can be equally screened.

transglycosylases = assay: modified membrane assay of radiolabeled Lipid II polymerization; type: biochemical; conditions: increasing concentrations of ramoplanin; FIG. 9
Excerpt: Ramoplanin (FIG. 8) is a cyclic glycolipodepsipeptide antibiotic that kills gram positive bacteria by inhibiting cell wall biosynthesis. Ramoplanin blocks the conversion of Lipid I to Lipid II, a reaction that is catalyzed by the intracellular GlcNAc transferase. MurG. It is proposed that ramoplanin inhibits MurG by complexing Lipid I, which prevents it from being utilized as a substrate. Unexpectedly ramoplanin is shown by this inventor to inhibit the polymerization of Lipid II; therefore another mechanism is discovered by which ramoplanin can kill bacterial cells through inhibition of the transglycosylation step of peptidoglycan synthesis. Using a synthetic analogue of Lipid II, the evidence is presented that enzyme inhibition by ramoplanin involves substrate binding. Unexpectedly, the ramoplanin complexes are found to self-associate to form observable fibrils. The mechanism of action of ramoplanin has been investigated in the past in permeabilized bacterial cells and membrane preparations by following the incorporation of radiolabel from a precursor into various intermediates along the pathway to peptidoglycan. […] The effect of ramoplanin on Lipid II polymerization is evaluated by monitoring the amount of radioactive peptidoglycan formed in the presence of increasing concentrations of ramoplanin. […]

[2] = NMR and CD titration of ramoplanin with compound 2; type: binding; conditions: NMR
Excerpt: The ability of ramoplanin to interact with 2 is investigated by NMR (FIG. 10). Unexpectedly, titration of ramoplanin with compound 2 caused the ramoplanin signals to disappear. Resonances for free 2 began to appear at a 1:1 ramoplanin:2 ratio. The disappearance of the ramoplanin resonances connotes a change in relaxation properties consistent with the formation of a high molecular weight species. A striking increase in the viscosity of the ramoplanin samples is evident upon the addition of compound 2. In addition, electron micrographs of the ramoplanin complexes show long fibrils (not shown). Thus, ramoplanin undergoes a ligand-induced polymerization process in the presence of 2. Ligand-induced polymerization of ramoplanin complexes implies a conformational change in ramoplanin. Therefore, one would expect a significant change in the far UV CD spectrum of ramoplanin upon adding 2. In fact, the CD spectrum for ramoplanin changes dramatically upon titration with 2 (FIG. 11). The appearance of a minimum at ˜210 nm is consistent with a model in which assembly into fibrils is mediated by hydrogen bonds between amides in the ramoplanin complexes, and is all likelihood related to the unusual pattern of D and L amino acids in the molecule. […]

| Substance | formation of peptidoglycan from biotinylated [14C]-Lipid II [1] | effect on Lipid II polymerization (radioactive peptidoglycan formed) (transglycosylases) | binding to Lipid II analogue [2] |
| --- | --- | --- | --- |
| moenomycin | inhibits formation of peptidoglycan |  |  |
| Ramoplanin |  | blocks the polymerization of Lipid II | binds to a synthetic analogue of Lipid II |
